According to patent publication US7981896B2 (Athersys, Inc., priority 2006, dated 2011):

These compounds were tested against T1, human histamine H3 receptor (Homo sapiens, UniProt Q9Y5N1) (assay: Competition radioligand binding assay with [125I]iodoproxyfan on membranes of RAGE-H3 (HT1080-Gqαi5) cells expressing human H3 receptor). Details: ~0.15 nM [125I]iodoproxyfan, 1.5 hrs at room temperature, head does not name the quantity (apparent Ki by Cheng-Prussof).
T1 construct: endogenous in cells; host or cells: HT1080-Gqαi5 RAGE clone (RAGE-H3), human fibrosarcoma line; integrated RAGE vector pFG8-HH3 supplies exon 1, the cell's own gene supplies the other exons
T1 sequence (Q9Y5N1 whole entry): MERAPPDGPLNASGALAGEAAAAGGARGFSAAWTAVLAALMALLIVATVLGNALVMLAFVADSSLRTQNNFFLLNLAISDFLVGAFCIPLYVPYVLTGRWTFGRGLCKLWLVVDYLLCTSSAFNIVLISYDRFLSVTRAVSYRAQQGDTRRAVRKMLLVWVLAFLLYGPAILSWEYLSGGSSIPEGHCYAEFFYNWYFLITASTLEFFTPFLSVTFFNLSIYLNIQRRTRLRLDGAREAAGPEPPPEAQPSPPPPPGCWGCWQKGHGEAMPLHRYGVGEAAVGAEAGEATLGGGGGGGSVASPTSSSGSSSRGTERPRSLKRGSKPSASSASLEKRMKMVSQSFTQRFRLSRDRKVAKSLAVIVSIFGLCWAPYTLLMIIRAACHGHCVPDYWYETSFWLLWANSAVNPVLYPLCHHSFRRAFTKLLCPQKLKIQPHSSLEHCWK
Method: Representative compounds of the present invention that were prepared by the procedures of Examples 1-83 were evaluated in binding assays against cells expressing human H3 receptor by the following procedure.
[^125I]iodoproxyfan (2000 Ci/mmol) was obtained from Amersham Bioscience (Piscataway, N.J.). All other chemicals were either from Sigma-Aldrich (St. Louis, Mo.) or Tocris Cookson Inc. (Ellisville, Mo.).
The human histamine H3 receptor was stably expressed in HT1080 cells containing the chimeric G-protein, Gq[…]i5 (Coward et al., Anal Biochem 1999; 270:242-8). HT1080-Gqαi5 cells were grown in alpha-modified MEM containing 10% fetal bovine serum and 7 μg/ml blasticidin at 37° C. in 5% CO2/95% atmosphere. Cells (4.8×10^9) were irradiated with 50 rads from a ^137Cs source and the pFG8-HH3 RAGE (Random Activation of Gene Expression; see Harrington et al., Nature Biotechnology. 2001; 19:440-45) vector was subsequently integrated into the cells via electroporation (250V, 600 μF, 50Ω). The RAGE vector pFG8-HH3 contained cDNA sequence coding for the first exon (83 amino acids) of human H3 receptor. After electroporation, cells were plated in T75 flasks and grown in alpha-modified MEM. The culture medium was replaced 48 hrs after electroporation with alpha-modified MEM, 10% fetal bovine serum, 500 μg/ml hygromycin B and 3 μg/ml puromycin. Medium was replaced every four days during cell expansion. To identify RAGE activated cells expressing the H3 receptor, pools of approximately 10,000 colonies (5×10^7-1.5×10^8 cells total) were screened by PCR for the desired gene product (using primers specific to the RAGE vector and exon 2 of the H3 receptor). […] Positive 100 cells/well pools were identified by PCR, confirmed by sequencing, and subsequently subcloned to 0.8 cells/well. Once clones expressing the H3 receptor were identified by PCR analysis, assays (FLIPR or radioligand binding) were performed to confirm that the activated gene produced functional protein. The protein expression in the initial clones obtained from the RAGE library was increased by growth in the presence of methotrexate. Since the integrated RAGE vector contains the DHFR gene, such treatment selects for cells that have amplified the genetic locus containing the RAGE insert. Subclones obtained after methotrexate amplification were tested for functional activity in FLIPR assays to identify the clone that was most suitable for HTS. The final HT1080-Gqαi5 RAGE clone (RAGE-H3) expressing the human histamine H3 receptor was grown in alpha-modified MEM containing 10% fetal bovine serum, 3 μg/ml puromycin, 500 μg/ml hygromycin B, 3.2 μM methotrexate at 37° C. in 5% CO2/95% atmosphere.
RAGE-H3 cells (10^9) were washed twice with cold PBS, scraped off the plates, and centrifuged at 1000×g for 5 minutes. Cells were resuspended in ice-cold 10 mM Tris HCl, pH 7.4, containing 5 mM EDTA and protease inhibitor cocktail tablets (Roche Molecular Biochemicals). After incubating on ice for 10 min, the cells were homogenized with a dounce homogenizer or a polytron tissue grinder, and centrifuged at 1000×g for 10 min at 4° C. The resulting supernatant was centrifuged at 32,000×g for 30 min at 4° C. The membrane pellets were resuspended in 50 mM Tris HCl, pH 7.4, and stored at −80° C. until use. Protein concentration was determined by the Bradford method (Bio-Rad Laboratories, CA).
Binding assays were carried out in 96-well polypropylene plates in 50 mM Tris HCl, pH 7.4, containing 1 mM EDTA. Reaction mixtures contained 100 μl of membrane suspension, 50 μl of 4% DMSO, and 50 μl of increasing amounts of [^125I]iodoproxyfan (final concentration 0.0005-1.8 nM for human H3 receptor saturation binding assay). Nonspecific binding was defined by adding 10 μM clobenpropit to the reaction mixtures. […]

Ki [nM]	Compound
< 100	FC(F)(F)c1cc(-c2ccccc2)n(-c2ccc(OCCCN3CCCCC3)cc2)n1 [Example 54, 1-{3-[4-(5-Phenyl-3-trifluoromethyl-pyrazol-1-yl)-phenoxy]-propyl}-piperidine]
< 1	Cc1c2c(nn1-c1ccc(OCCCN3CCCC3)cc1)CCCC2 [Example 56, 3-Methyl-2-[4-(3-pyrrolidin-1-yl-propoxy)-phenyl]-4,5,6,7-tetrahydro-2H-indazole]
< 10	Cc1cc(C(C)(C)C)nn1-c1ccc(OCCCN2CCCC2)cc1 [Example 26, 3-tert-Butyl-5-methyl-1-[4-(3-pyrrolidin-1-ylpropoxy)-phenyl]-1H-pyrazole]
< 10	Cc1nn(-c2ccc(OCCCN3CCCC3)cc2)c2c1CCC2 [Example 57, 3-Methyl-1-[4-(3-pyrrolidin-1-yl-propoxy)-phenyl]-1,4,5,6-tetrahydro-cyclopentapyrazole]
< 100	Cc1c2c(nn1-c1ccc(OCCCN3CCCC3)cc1)CCC2 [Example 58, 3-Methyl-2-[4-(3-pyrrolidin-1-yl-propoxy)-phenyl]-2,4,5,6-tetrahydro-cyclopentapyrazole]
< 10	Cc1cc(C(=O)NC2CCCCC2)nn1-c1ccc(OCCCN2CCCC2)cc1 [Example 83, 5-Methyl-1-[4-(3-pyrrolidin-1-ylpropoxy)phenyl]-1H-pyrazole-3-carboxylic acid cyclohexylamide]
< 100	Cc1cc(C(C)(C)C)n(-c2ccc(OCCCN3CCCCC3)cc2)n1 [Example 34, 5-tert-Butyl-3-methyl-1-[4-(3-piperidin-1-ylpropoxy)-phenyl]-1H-pyrazole]
< 10	Cc1cc(OCCCN2CCCC2)ccc1-n1nc(C(C)C)cc1C(C)C [Example 61, 3,5-Diisopropyl-1-[2-methyl-4-(3-pyrrolidin-1-ylpropoxy)phenyl]-1H-pyrazole]
< 10	FC(F)(F)c1cc(-c2ccccc2)n(-c2ccc(OCCCN3CCCC3)cc2)n1 [Example 50, 5-Phenyl-1-[4-(3-pyrrolidin-1-yl-propoxy)-phenyl]-3-trifluoromethyl-1H-pyrazole]
> 10000	Cc1cc(C(=O)NC2CCCCC2)n(-c2ccc(OCC3CCCN4CCCCC34)cc2)n1 (centres unmarked) [Example 82, 5-Methyl-2-[4-(octahydroquinolizin-1-ylmethoxy)phenyl]-2H-pyrazole-3-carboxylic acid cyclohexylamide]
< 100	CC1CCCN1CCCOc1ccc(-n2nc(C(F)(F)F)c3oc4ccccc4c32)cc1 (centres unmarked) [Example 67, 3-{4-[3-(2-Methyl-pyrrolidin-1-yl)-propoxy]-phenyl}-1-trifluoromethyl-3H-8-oxa-2,3-diaza-cyclopenta[a]indene]
< 10	Cc1cc(C(=O)NC2CCCCC2)n(-c2ccc(OCCCN3CCOCC3)cc2)n1 [Example 76, 5-Methyl-2-[4-(3-morpholin-4-ylpropoxy)phenyl]-2H-pyrazole-3-carboxylic acid cyclohexylamide]
< 1	Cc1cc(C(=O)NC2CCC2)n(-c2ccc(OCCCN3CCCC3)cc2)n1 [Example 80, 5-Methyl-2-[4-(3-pyrrolidin-1-ylpropoxy)phenyl]-2H-pyrazole-3-carboxylic acid cyclobutylamide]
< 1	Cc1cc(C(=O)NC2CCCCC2)n(-c2ccc(OCCCN3CCCCC3)cc2)n1 [Example 75, 5-Methyl-2-[4-(3-piperidin-1-ylpropoxy)phenyl]-2H-pyrazole-3-carboxylic acid cyclohexylamide]
< 1000	Cc1cc(C(=O)NC2CCCCC2)n(-c2ccc(OCCC3CCCN3C)cc2)n1 (centres unmarked) [Example 77, 5-Methyl-2-{4-[2-(1-methylpyrrolidin-2-yl)ethoxy]phenyl}-2H-pyrazole-3-carboxylic acid cyclohexylamide]
< 10	CCc1c(C)nn(-c2ccc(OCCCN3CCCC3)cc2)c1C [Example 37, 4-Ethyl-3,5-dimethyl-1-[4-(3-pyrrolidin-1-ylpropoxy)phenyl]-1H-pyrazole]
< 10	Cc1cc(C(=O)N2CCCC2)n(-c2ccc(OCCCN3CCCC3)cc2)n1 [Example 78, {5-Methyl-2-[4-(3-pyrrolidin-1-ylpropoxy)phenyl]-2H-pyrazol-3-yl}pyrrolidin-1-ylmethanone]

Further lines, the compound ahead of its results:

Compound	Ki [nM]
CC(C)c1cc(C(C)C)n(-c2ccc(OCCCN3CCCC3)cc2)n1 [Example 24, 3,5-Diisopropyl-1-[4-(3-pyrrolidin-1-yl-propoxy)-phenyl]-1H-pyrazole]	< 10
Cc1nn(-c2ccc(OCCCN3CCOCC3)cc2)c2c1CCc1ccccc1-2 [Example 3, 3-Methyl-1-[4-(3-morpholin-1-ylpropoxy)phenyl]-4,5-dihydro-1H-benzo[g]indazole]	< 10
FC(F)(F)c1cc(/C=C/c2ccccc2)n(-c2ccc(OCCCN3CCCC3)cc2)n1 [Example 4, 1-[4-(3-Pyrrolidin-1-ylpropoxy)phenyl]-5-styryl-3-trifluoromethyl-1H-pyrazole]	< 100
CCc1cc(CC)n(-c2ccc(OCCCN3CCCCC3)cc2)n1 [Example 22, 3,5-Diethyl-1-[4-(3-piperidin-1-ylpropoxy)phenyl]-1H-pyrazole]	< 10
Cc1c2c(nn1-c1ccc(OCCCN3CCCC3)cc1)[C@H]1CCCC[C@@H]1CC2 (relative stereo) [Example 6, 3-Methyl-2-[4-(3-pyrrolidin-1-ylpropoxy)phenyl]-4,5,5a,6,7,8,9,9a-octahydro-2H-benzo[g]indazole]	< 10
Cc1cc(CC(C)C)nn1-c1ccc(OCCCN2CCCCC2)cc1 [Example 30]	< 10
COc1ccc2c(c1)-c1c(c(C)nn1-c1ccc(OCCCN3CCCC3)cc1)CC2 [Example 7, 8-Methoxy-3-methyl-1-[4-(3-pyrrolidin-1-ylpropoxy)phenyl]-4,5-dihydro-1H-benzo[g]indazole]	< 100
3-Methyl-1-[4-(3-piperidin-1-yl-propoxy)-phenyl]-1,4,5,6-tetrahydro-cyclopentapyrazole [Example 59]	< 10
Cc1cc(CC(C)C)nn1-c1ccc(OCCCN2CCCC2)cc1 [Example 31]	< 10
Cc1cc(C(=O)NC2CCCCC2)n(-c2ccc(OC3CCN(C(C)C)CC3)cc2)n1 [Example 12, 2-[4-(1-Isopropylpiperidin-4-yloxy)phenyl]-5-methyl-2H-pyrazole-3-carboxylic acid cyclohexylamide]	< 10
Cc1cc(C(=O)NC2CCCCC2)n(-c2ccc(OC3CCN(C4CCCCC4)CC3)cc2)n1 [Example 11, 2-[4-(1-Cyclohexylpiperidin-4-yloxy)phenyl]-5-methyl-2H-pyrazole-3-carboxylic acid cyclohexylamide]	< 10
Cc1nn(-c2ccc(OCCCN3CCC[C@H]3C)cc2)c2c1CCc1ccccc1-2 [Example 2, 3-Methyl-1-{4-[3-(2R-methylpyrrolidin-1-yl)propoxy]phenyl}-4,5-dihydro-1H-benzo[g]indazole]	< 10
3-Phenyl-1-[4-(3-pyrrolidin-1-ylpropoxy)phenyl]-4,5,6,7-tetrahydro-2H-indazole [Example 44]	< 100
Cc1nn(-c2ccc(OCCCN3CCCC3)cc2)c2c1CC[C@@H]1CCCC[C@@H]21 (relative stereo) [Example 5, 3-Methyl-1-[4-(3-pyrrolidin-1-ylpropoxy)phenyl]-4,5,5a,6,7,8,9,9a-octahydro-1H-benzo[g]indazole]	< 1
c1ccc2nn(-c3ccc(OCCCN4CCCC4)cc3)cc2c1 [Example 18, 2-[4-(3-Pyrrolidin-1-ylpropoxy)phenyl]-2H-indazole]	< 100
